Results as given in patent publication US6599913B1, “Treating allergic and inflammatory conditions” (Schering Corporation, priority 2001, dated 2003).

How the values were obtained:
[1] = Treatment of chronic idiopathic urticaria; conditions: oral administration
[2] = Double-blinded randomized clinical trials in seasonal allergic rhinitis
Description: Efficacy endpoints in all the studies were Total Symptom Score, Total Nasal Symptom Score, Total Non-nasal Symptom Score, and Health Quality of Life (HQOL) analysis in efficacy trials. […] This parameter measures the total symptom relief by the patient after 24 hours before taking the next day dose.

P-gp = P-gp (UniProt P21448); conditions: ATP hydrolysis
Description: The invention will be further described by reference to the following study.
A direct functional assay was performed with […] as described previously. Ibid. The consumption of ATP was determined by the liberated inorganic orthophosphate, which forms a color complex with molybdate.
If a compound is a substrate of P-gp the hydrolysis of ATP is required as the driving force. As ATP is consumed at a purported rate of about one or two per transport event, the hydrolysis of ATP represents transport rate or activity assay of function. […] Any change in the rate of ATP hydrolysis represents the sum of the basal activity and the contribution of the exogenous substrate to ATP hydrolysis.

human OATP1 = biological target: T1, human OATP1 (Homo sapiens, UniProt P46721); conditions: at 10 μM; cited from earlier work
T1 sequence (P46721 1-670): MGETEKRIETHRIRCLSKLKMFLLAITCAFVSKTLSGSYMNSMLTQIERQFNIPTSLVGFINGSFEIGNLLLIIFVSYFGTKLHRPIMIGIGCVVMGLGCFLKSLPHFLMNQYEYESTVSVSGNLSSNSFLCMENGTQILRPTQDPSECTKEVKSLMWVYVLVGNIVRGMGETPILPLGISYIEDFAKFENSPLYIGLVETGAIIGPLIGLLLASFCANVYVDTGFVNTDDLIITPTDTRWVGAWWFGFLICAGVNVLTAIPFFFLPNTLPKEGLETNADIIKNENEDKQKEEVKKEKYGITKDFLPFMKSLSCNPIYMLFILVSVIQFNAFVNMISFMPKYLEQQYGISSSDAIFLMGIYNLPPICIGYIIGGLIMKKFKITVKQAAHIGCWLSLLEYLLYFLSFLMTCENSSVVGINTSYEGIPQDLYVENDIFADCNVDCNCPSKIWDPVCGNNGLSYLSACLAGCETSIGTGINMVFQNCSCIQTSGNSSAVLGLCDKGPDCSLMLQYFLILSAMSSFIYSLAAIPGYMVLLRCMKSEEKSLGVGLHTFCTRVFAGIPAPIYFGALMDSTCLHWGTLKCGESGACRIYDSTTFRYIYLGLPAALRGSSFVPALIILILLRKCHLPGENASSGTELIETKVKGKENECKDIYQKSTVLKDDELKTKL

rat OATP1 = biological target: T2, rat OATP1 (Rattus norvegicus, UniProt P46720); conditions: cited from earlier work
T2 sequence (P46720 1-670): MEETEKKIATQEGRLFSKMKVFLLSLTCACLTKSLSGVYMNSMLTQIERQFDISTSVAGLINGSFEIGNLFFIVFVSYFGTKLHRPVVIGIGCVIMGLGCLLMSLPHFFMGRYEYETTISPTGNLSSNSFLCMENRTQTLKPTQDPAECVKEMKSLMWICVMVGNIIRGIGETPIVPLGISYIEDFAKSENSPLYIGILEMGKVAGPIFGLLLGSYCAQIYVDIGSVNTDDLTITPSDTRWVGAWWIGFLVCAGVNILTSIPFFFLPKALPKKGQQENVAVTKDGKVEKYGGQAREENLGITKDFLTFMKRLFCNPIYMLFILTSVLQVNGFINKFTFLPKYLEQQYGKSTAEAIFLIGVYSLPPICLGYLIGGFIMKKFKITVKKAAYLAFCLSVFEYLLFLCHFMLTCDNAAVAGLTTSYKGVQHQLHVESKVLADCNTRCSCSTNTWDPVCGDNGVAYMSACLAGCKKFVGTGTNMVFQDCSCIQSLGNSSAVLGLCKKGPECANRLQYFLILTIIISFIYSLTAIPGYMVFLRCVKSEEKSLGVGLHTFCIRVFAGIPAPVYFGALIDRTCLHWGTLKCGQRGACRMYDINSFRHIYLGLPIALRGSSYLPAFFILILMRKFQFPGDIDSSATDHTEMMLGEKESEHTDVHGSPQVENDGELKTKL

human OATP = biological target: T3, human OATP (Homo sapiens, UniProt P46721); conditions: cited from earlier work
T3 sequence (P46721 1-670): T1 sequence (P46721 1-670)

Molecule: Clc1ccc2c(c1)CCc1cccnc1C2=C1CCNCC1 [desloratadine]
- Severity of pruritis, number of hives, size of largest hive, total symptom score [1]: significantly reduced
- Reduction of nasal symptoms versus placebo ([2]; 5 mg): significantly (p<0.01) more effective than placebo
- Total symptom scores ([2]; 5 mg once daily): significantly reduced
- AM NOW total symptom score ([2]; full 24 hour dosing interval, 5 mg to 20 mg): Statistically significant (p<0.05) reductions

Molecule: CCOC(=O)N1CCC(=C2c3ccc(Cl)cc3CCc3cccnc32)CC1 [loratadine]
- Vmax above basal activity (P-gp; FIG. 3): ≈ 200%
- Vmax as % of basal (control) activity (P-gp; without H33342): about 200%

Molecule: CC[C@H](C)C(=O)O[C@H]1C[C@@H](C)C=C2C=C[C@H](C)[C@H](CC[C@@H]3C[C@@H](O)CC(=O)O3)[C@H]21 [lovastatin]
- Inhibition of human OATP1 (human OATP1): effectively inhibits
- Inhibition of rat OATP1 (rat OATP1; at 50 μM): effectively inhibit
- Inhibition of fexofenadine uptake (human OATP): significant inhibition

Molecule: CC(C)c1nc(CN(C)C(=O)N[C@H](C(=O)N[C@@H](Cc2ccccc2)C[C@H](O)[C@H](Cc2ccccc2)NC(=O)OCc2cncs2)C(C)C)cs1 [ritonavir]
- Inhibition of human OATP1 (human OATP1): effectively inhibit
- Inhibition of fexofenadine uptake (human OATP): significant inhibition

Molecule: CC(C)(C)NC(=O)[C@@H]1C[C@@H]2CCCC[C@@H]2CN1C[C@@H](O)[C@H](Cc1ccccc1)NC(=O)[C@H](CC(N)=O)NC(=O)c1ccc2ccccc2n1 [saquinavir]
- Inhibition of human OATP1 (human OATP1): effectively inhibit
- Inhibition of fexofenadine uptake (human OATP): significant inhibition

Molecule: APD-ajmalinium
- Transport by rat OATP (rat OATP1): transports
